# Source: patent US9932341B2, “Use of pyrazolopyrimidine derivatives for the treatment of PI3K-delta related disorders” (Incyte Corporation, priority 2013, dated 2018)
# pIC50: −log10 of the molar value.
# Biological target: PI3Kδ (p110δ/p85α) (Homo sapiens (Human), UniProt O00329)
# Test: PI3Kδ Scintillation Proximity Assay (Example A3)
# Format: biochemical
# Details: 20 μM ATP, 20 μM PIP2, 4 nM PI3Kδ, read-out: PI3Kδ SPA IC50
# Description: [γ-^33P]ATP (10 mCi/mL) was purchased from PerkinElmer (Waltham, Mass.). […] PI3Kδ (p110δ/p85α) was purchased from Millipore (Bedford, Mass.). ATP, MgCl2, DTT, EDTA, MOPS and CHAPS were purchased from Sigma-Aldrich (St. Louis, Mo.). Wheat Germ Agglutinin (WGA) YSi SPA Scintillation Beads was purchased from GE healthcare life sciences (Piscataway, N.J.).
# The kinase reaction was conducted in polystyrene 384-well matrix white plate from Thermo Fisher Scientific in a final volume of 25 μL. Inhibitors were first diluted serially in DMSO and added to the plate wells before the addition of other reaction components. The final concentration of DMSO in the assay was 0.5%. The PI3K assays were carried out at room temperature in 20 mM MOPS, pH 6.7, 10 mM MgCl2, 5 mM DTT and CHAPS 0.03%. Reactions were initiated by the addition of ATP, the final reaction mixture consisted of 20 μM PIP2, 20 μM ATP, 0.2 μCi [γ-^33P] ATP, 4 nM PI3Kδ. […] 25 mM EDTA, 400 μM ATP. The final concentration of SPA beads was 1.0 mg/mL. After the plate sealing, plates were shaken overnight at room temperature and centrifuged at 1800 rpm for 10 minutes, the radioactivity of the product was determined by scintillation counting on Topcount (PerkinElmer). IC50 determination was performed by fitting the curve of percent control activity versus the log of the inhibitor concentration using the GraphPad Prism 3.0 software.
# PI3Kδ (p110δ/p85α), sequence (O00329 whole entry): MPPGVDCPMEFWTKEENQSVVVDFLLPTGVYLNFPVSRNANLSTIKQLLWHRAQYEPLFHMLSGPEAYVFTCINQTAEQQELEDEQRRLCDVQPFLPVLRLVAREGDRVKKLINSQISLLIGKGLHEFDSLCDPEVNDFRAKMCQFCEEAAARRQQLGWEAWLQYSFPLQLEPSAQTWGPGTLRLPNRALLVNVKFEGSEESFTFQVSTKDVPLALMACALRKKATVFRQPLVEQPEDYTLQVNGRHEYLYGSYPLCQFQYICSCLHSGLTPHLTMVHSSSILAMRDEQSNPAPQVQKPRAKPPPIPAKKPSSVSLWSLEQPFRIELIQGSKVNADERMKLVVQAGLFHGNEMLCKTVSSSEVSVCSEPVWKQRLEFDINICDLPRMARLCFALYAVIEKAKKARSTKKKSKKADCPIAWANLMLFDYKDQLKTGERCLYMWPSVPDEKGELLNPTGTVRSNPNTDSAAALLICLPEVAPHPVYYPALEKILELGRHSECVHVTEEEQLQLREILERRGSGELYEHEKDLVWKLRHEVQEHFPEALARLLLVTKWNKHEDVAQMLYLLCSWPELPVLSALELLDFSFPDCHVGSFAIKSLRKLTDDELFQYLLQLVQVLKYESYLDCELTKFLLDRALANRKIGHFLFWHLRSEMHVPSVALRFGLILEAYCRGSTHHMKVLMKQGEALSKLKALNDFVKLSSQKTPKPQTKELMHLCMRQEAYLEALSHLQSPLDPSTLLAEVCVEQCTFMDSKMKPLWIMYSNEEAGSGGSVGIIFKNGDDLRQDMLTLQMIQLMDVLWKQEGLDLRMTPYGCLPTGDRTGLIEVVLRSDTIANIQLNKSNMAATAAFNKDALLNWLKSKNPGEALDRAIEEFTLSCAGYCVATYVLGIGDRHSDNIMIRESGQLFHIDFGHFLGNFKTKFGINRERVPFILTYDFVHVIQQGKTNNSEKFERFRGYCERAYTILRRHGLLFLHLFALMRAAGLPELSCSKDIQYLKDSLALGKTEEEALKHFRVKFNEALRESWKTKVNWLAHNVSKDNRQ
# PI3Kδ (p110δ/p85α), sequence (P27986 whole entry partner): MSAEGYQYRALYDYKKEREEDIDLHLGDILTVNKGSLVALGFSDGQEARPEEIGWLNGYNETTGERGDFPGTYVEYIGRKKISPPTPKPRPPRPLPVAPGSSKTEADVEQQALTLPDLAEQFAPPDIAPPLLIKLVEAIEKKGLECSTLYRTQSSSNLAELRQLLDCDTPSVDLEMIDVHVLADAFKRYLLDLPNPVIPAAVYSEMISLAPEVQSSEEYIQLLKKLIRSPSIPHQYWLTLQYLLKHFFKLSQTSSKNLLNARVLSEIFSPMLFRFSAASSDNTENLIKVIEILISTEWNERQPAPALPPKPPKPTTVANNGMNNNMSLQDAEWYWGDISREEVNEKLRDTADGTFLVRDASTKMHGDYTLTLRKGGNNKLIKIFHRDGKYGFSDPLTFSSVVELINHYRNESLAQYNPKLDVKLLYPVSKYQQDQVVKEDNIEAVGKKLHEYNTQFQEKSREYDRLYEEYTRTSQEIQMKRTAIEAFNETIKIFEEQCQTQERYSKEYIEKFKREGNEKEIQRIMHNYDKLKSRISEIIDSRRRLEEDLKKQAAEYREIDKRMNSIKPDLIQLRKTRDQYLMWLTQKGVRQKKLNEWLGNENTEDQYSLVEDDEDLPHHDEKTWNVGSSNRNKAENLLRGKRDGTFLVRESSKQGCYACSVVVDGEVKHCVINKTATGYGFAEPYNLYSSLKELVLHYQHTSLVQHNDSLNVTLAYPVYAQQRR
row,Molecule,pIC50
1,"1-(1-(5-chloro-2-methoxy-4-methyl-3-(pyrimidin-5-yl)phenyl)ethyl)-3-methyl-1H-pyrazolo[3,4-d]pyrimidin-4-amine [Example 168]",> 8.00
2,"COc1c(C(C)n2nc(C)c3c(N)ncnc32)cc(Cl)c(C)c1C1CN(CC2CC2)C1 (racemic) [Example 4, 1-(1-{5-Chloro-3-[1-(cyclopropylmethyl)azetidin-3-yl]-2-methoxy-4-methylphenyl}ethyl)-3-methyl-1H-pyrazolo[3,4-d]pyrimidin-4-amine bis(trifluoroacetate)]",> 8.00
3,"COc1c(C(C)n2nc(C)c3c(N)ncnc32)cc(Cl)c(C)c1C1CN(C)C1 (racemic) [Example 5, 1-{1-[5-chloro-2-methoxy-4-methyl-3-(1-methylazetidin-3-yl)phenyl]ethyl}-3-methyl-1H-pyrazolo[3,4-d]pyrimidin-4-amine]",> 8.00
4,"CCN1CC(c2c(C)c(Cl)cc(C(C)n3nc(C)c4c(N)ncnc43)c2OC)C1 (racemic) [Example 6, 1-{1-[5-Chloro-3-(1-ethylazetidin-3-yl)-2-methoxy-4-methylphenyl]ethyl}-3-methyl-1H-pyrazolo[3,4-d]pyrimidin-4-amine]",> 8.00
5,"COc1c(C(C)n2nc(C)c3c(N)ncnc32)cc(Cl)c(C)c1C1CN(CC(C)C)C1 (racemic) [Example 7, 1-{1-[5-Chloro-3-(1-isobutylazetidin-3-yl)-2-methoxy-4-methylphenyl]ethyl}-3-methyl-1H-pyrazolo[3,4-d]pyrimidin-4-amine]",> 8.00
6,"COCCN1CC(c2c(C)c(Cl)cc(C(C)n3nc(C)c4c(N)ncnc43)c2OC)C1 (racemic) [Example 9, 1-(1-{5-Chloro-2-methoxy-3-[1-(2-methoxyethyl)azetidin-3-yl]-4-methylphenyl}ethyl)-3-methyl-1H-pyrazolo[3,4-d]pyrimidin-4-amine]",> 8.00
7,"CNC(=O)N1CC(c2c(C)c(Cl)cc(C(C)n3nc(C)c4c(N)ncnc43)c2OC)C1 (racemic) [Example 10, 3-{3-[1-(4-Amino-3-methyl-1H-pyrazolo[3,4-d]pyrimidin-1-yl)ethyl]-5-chloro-2-methoxy-6-methylphenyl}-N-methylazetidine-1-carboxamide]",> 8.00
8,"CNC(=O)c1cc(-c2c(C)c(Cl)cc(C(C)n3nc(C)c4c(N)ncnc43)c2OC)ccn1 (racemic) [Example 17, 4-(3-(1-(4-amino-3-methyl-1H-pyrazolo[3,4-c]pyrimidin-1-yl)ethyl)-5-chloro-2-methoxy-6-methylphenyl)-N-methylpicolinamide]",> 8.00
9,"COc1c(C(C)n2nc(C)c3c(N)ncnc32)cc(Cl)c(C)c1-c1ccnc(C(=O)NCCO)c1 (racemic) [Example 18, 4-{3-[1-(4-Amino-3-methyl-1H-pyrazolo[3,4-d]pyrimidin-1-yl)ethyl]-5-chloro-2-methoxy-6-methylphenyl}-N-(2-hydroxyethyl)pyridine-2-carboxamide]",> 8.00
10,"COc1c(C(C)n2nc(C)c3c(N)ncnc32)cc(Cl)c(C)c1-c1ccnc(C(=O)N(C)CCO)c1 (racemic) [Example 19, 4-{3-[1-(4-amino-3-methyl-1H-pyrazolo[3,4-d]pyrimidin-1-yl)ethyl]-5-chloro-2-methoxy-6-methylphenyl}-N-(2-hydroxyethyl)-N-methylpyridine-2-carboxamide]",> 8.00
11,"CCOc1c(C(C)n2nc(C)c3c(N)ncnc32)cc(Cl)c(C#N)c1-c1cncc(S(C)(=O)=O)c1 (racemic) [Example 43, 4-[1-(4-amino-3-methyl-1H-pyrazolo[3,4-d]pyrimidin-1-yl)ethyl]-6-chloro-3-ethoxy-2-[5-(methylsulfonyl)pyridin-3-yl]benzonitrile]",> 8.00
12,"CCOc1c(C(C)n2nc(C)c3c(N)ncnc32)cc(Cl)c(C#N)c1-c1ccc(C(=O)N(C)C)nc1 (racemic) [Example 44, 5-(3-(1-(4-amino-3-methyl-1H-pyrazolo[3,4-d]pyrimidin-1-yl)ethyl)-5-chloro-6-cyano-2-ethoxyphenyl)-N,N-dimethylpicolinamide]",> 8.00
13,"COc1c(C(C)n2nc(C)c3c(N)ncnc32)cc(Cl)c(F)c1C1CN(CCO)C1 (racemic) [Example 71, 2-(3-{3-[1-(4-Amino-3-methyl-1H-pyrazolo[3,4-d]pyrimidin-1-yl)ethyl]-5-chloro-6-fluoro-2-methoxyphenyl}azetidin-1-yl)ethanol]",> 8.00
14,"COc1c(C(C)n2nc(C)c3c(N)ncnc32)cc(Cl)c(C)c1-c1cnn(CCO)c1 (single isomer, unassigned) [20 (1st peak), 2-(4-(3-(1-(4-Amino-3-methyl-1H-pyrazolo[3,4-d]pyrimidin-1-yl)ethyl)-5-chloro-2-methoxy-6-methylphenyl)-1H-pyrazol-1-yl)ethanol]",> 8.00
15,"CCOc1c(C(C)n2nc(C)c3c(N)ncnc32)cc(C)c(C#N)c1C1CN(C(=O)C(C)(C)O)C1 (single isomer, unassigned) [322 (1st peak), 4-[1-(4-amino-3-methyl-1H-pyrazolo[3,4-d]pyrimidin-1-yl)ethyl]-3-ethoxy-2-[1-(2-hydroxy-2-methylpropanoyl)azetidin-3-yl]-6-methylbenzonitrile]",> 8.00
16,"COc1c(C(C)n2nc(C)c3c(N)ncnc32)cc(Cl)c(C)c1C1CNC(=O)CO1 (single isomer, unassigned) [324 (2nd peak), 6-{3-[1-(4-Amino-3-methyl-1H-pyrazolo[3,4-d]pyrimidin-1-yl)ethyl]-5-chloro-2-methoxy-6-methylphenyl}morpholin-3-one]",> 8.00
17,"COc1c(C(C)n2nc(C)c3c(N)ncnc32)cc(Cl)c(C)c1C1CN(C(C)C)C1 (single isomer, unassigned) [Example 1, 1-{1-[5-Chloro-3-(1-isopropylazetidin-3-yl)-2-methoxy-4-methylphenyl]ethyl}-3-methyl-1H-pyrazolo[3,4-d]pyrimidin-4-amine bis(trifluoroacetate)]",> 8.00

# More lines, now with the values ahead:
row,pIC50,Molecule
1,> 8.00,"CCOc1c(C(C)n2nc(C)c3c(N)ncnc32)cc(Cl)c(C)c1C1CN(CCO)C1 (racemic) [Example 95, 2-(3-{3-[1-(4-Amino-3-methyl-1H-pyrazolo[3,4-d]pyrimidin-1-yl)ethyl]-5-chloro-2-ethoxy-6-methylphenyl}azetidin-1-yl)ethanol bis(trifluoroacetate)]"
2,> 8.00,"CCOc1c(C(C)n2nc(C)c3c(N)ncnc32)cc(Cl)c(F)c1C1CN(CC(C)(C)O)C1 (racemic) [Example 140, 1-(3-{3-[1-(4-Amino-3-methyl-1H-pyrazolo[3,4-d]pyrimidin-1-yl)ethyl]-5-chloro-2-ethoxy-6-fluorophenyl}azetidin-1-yl)-2-methylpropan-2-ol]"
3,> 8.00,"CCOc1c(C(C)n2nc(C)c3c(N)ncnc32)cc(Cl)c(F)c1C1CN(CC(F)(F)F)C1 (racemic) [Example 141, 1-(1-{5-Chloro-2-ethoxy-4-fluoro-3-[1-(2,2,2-trifluoroethyl)azetidin-3-yl]phenyl}ethyl)-3-methyl-1H-pyrazolo[3,4-d]pyrimidin-4-amine]"
4,> 8.00,"COc1c(C(C)n2nc(C)c3c(N)ncnc32)cc(Cl)c(C)c1C1CCN(C)CC1 (racemic) [Example 163, 1-{1-[5-Chloro-2-methoxy-4-methyl-3-(1-methylpiperidin-4-yl)phenyl]ethyl}-3-methyl-1H-pyrazolo[3,4-d]pyrimidin-4-amine]"
5,> 8.00,"COc1c(C(C)n2nc(C)c3c(N)ncnc32)cc(Cl)c(C)c1C1CCN(CC(C)(C)O)CC1 (racemic) [Example 164, 1-(4-{3-[1-(4-Amino-3-methyl-1H-pyrazolo[3,4-d]pyrimidin-1-yl)ethyl]-5-chloro-2-methoxy-6-methylphenyl}piperidin-1-yl)-2-methylpropan-2-ol]"
6,> 8.00,"CCOc1c(C(C)n2nc(C)c3c(N)ncnc32)cc(Cl)c(C#N)c1-c1ccc(C(C)(C)O)nc1 (racemic) [Example 316, 4-[1-(4-amino-3-methyl-1H-pyrazolo[3,4-d]pyrimidin-1-yl)ethyl]-6-chloro-3-ethoxy-2-[6-(1-hydroxy-1-methylethyl)pyridin-3-yl]benzonitrile]"
7,> 8.00,"CCOc1c(C(C)n2nc(C)c3c(N)ncnc32)cc(Cl)c(C#N)c1N1CCCC1 (racemic) [Example 318, 4-[1-(4-amino-3-methyl-1H-pyrazolo[3,4-d]pyrimidin-1-yl)ethyl]-6-chloro-3-ethoxy-2-pyrrolidin-1-ylbenzo nitrile]"
8,> 8.00,"CCOc1c(C(C)n2nc(C)c3c(N)ncnc32)cc(Cl)c(C#N)c1N1CC(OC)C1 (racemic) [Example 319, 4-[1-(4-amino-3-methyl-1H-pyrazolo[3,4-d]pyrimidin-1-yl)ethyl]-6-chloro-3-ethoxy-2-(3-methoxyazetidin-1-yl)benzonitrile]"
9,> 8.00,"CCOc1c(C(C)n2nc(C)c3c(N)ncnc32)cc(C)c(C#N)c1C1CN(C(C)C)C1 (racemic) [Example 320, 4-[1-(4-amino-3-methyl-1H-pyrazolo[3,4-d]pyrimidin-1-yl)ethyl]-3-ethoxy-2-(1-isopropylazetidin-3-yl)-6-methylbenzonitrile]"
